Laboratory results reported in patent US12552825B2 (Zikani Therapeutics, Inc., priority 2019, dated 2026).
In brackets after ≈: the same amount, converted by molar mass.

How the values were obtained:
Format in all cases: cell-based
S. aureus MP-12 = test: microbe, parasite or virus in culture; conditions: Staphylococcus aureus, MP12, read-out: MIC S. aureus MP-12
E. coli MP-4 = test: MIC determination by CLSI broth dilution, E. coli MP-4; conditions: Escherichia coli, MP4, CLSI broth dilution; strain MP-4
P. aeruginosa MP-3 = test: MIC determination by CLSI broth dilution, P. aeruginosa MP-3; conditions: Pseudomonas aeruginosa, MP3, strain MP-3
A. baumannii MP-15 = test: MIC determination by CLSI broth dilution, A. baumannii MP-15; conditions: Acinetobacter baumannii, MP15, strain MP-15, read-out: MIC A. baumanii MP-15
K. pneumoniae MP-546 = test: MIC determination by CLSI broth dilution, K. pneumoniae MP-546; conditions: Klebsiella pneumoniae, MP546, CLSI broth dilution; strain MP-546

SMILES	MIC (S. aureus MP-12) [µg/mL]	MIC (E. coli MP-4) [µg/mL]	MIC (P. aeruginosa MP-3) [µg/mL]	MIC (A. baumannii MP-15) [µg/mL]	MIC (K. pneumoniae MP-546) [µg/mL]
CO[C@]1(C)C[C@@H](C)CN[C@@H](Cc2ccc(O)cc2)COC(=O)[C@H](C)C(=O)[C@H](C)[C@H]1O[C@@H]1OC(C)CC(N(C)C)C1O (stereo partly drawn) [Compound 209]	4 to 32 (≈ 6.91 to 55.3 µM)	> 32	> 32	> 32	
CC[C@H]1OC(=O)[C@H](C)C(=O)[C@H](C)[C@@H](O[C@@H]2OC(C)CC(N(C)C)C2O)[C@](C)(OC)C[C@@H](C)CN[C@H]1C (stereo partly drawn) [Compound 210]	> 32	> 32	> 32	> 32	
CC[C@H]1OC(=O)[C@H](C)C(=O)[C@H](C)[C@@H](O[C@@H]2OC(C)CC(N(C)C)C2O)[C@](C)(OC)C[C@@H](C)CN(C)[C@H]1C (stereo partly drawn) [Compound 211]	> 32	> 32	> 32	> 32	
CO[C@]1(C)C[C@@H](C)CNC(CO)(CO)COC(=O)[C@H](C)C(=O)[C@H](C)[C@H]1O[C@@H]1OC(C)CC(N(C)C)C1O (stereo partly drawn) [Compound 212]	> 32	> 32	> 32	> 32	
C=C[C@@H]1COC(=O)[C@H](C)C(=O)[C@H](C)[C@@H](O[C@@H]2OC(C)CC(N(C)C)C2O)[C@](C)(OC)C[C@@H](C)CN1 (stereo partly drawn) [Compound 213]	> 32	> 32	> 32	> 32	
CC[C@@H]1COC(=O)[C@H](C)C(=O)[C@H](C)[C@@H](OC2OC(C)CC(N(C)C)C2O)[C@](C)(OC)C[C@@H](C)CN1 (stereo partly drawn) [Compound 215]	> 32	> 32	> 32	> 32	
CO[C@]1(C)C[C@@H](C)CN[C@H](CNC2COC2)COC(=O)[C@H](C)C(=O)[C@H](C)[C@H]1O[C@@H]1O[C@H](C)C[C@H](N(C)C)[C@H]1O [Compound 216]	> 32	4 to 32 (≈ 7.17 to 57.4 µM)	> 32	> 32	
CO[C@]1(C)C[C@@H](C)CN[C@H](CNCc2ccc(F)cn2)COC(=O)[C@H](C)C(=O)[C@H](C)[C@H]1O[C@@H]1O[C@H](C)C[C@H](N(C)C)[C@H]1O [Compound 217]	> 32	> 32	> 32	> 32	
CO[C@]1(C)C[C@@H](C)CN[C@H](Cn2cc(-c3cccc(N)n3)nn2)COC(=O)[C@H](C)C(=O)[C@H](C)[C@H]1O[C@@H]1O[C@H](C)C[C@H](N(C)C)[C@H]1O [Compound 219, (3R,6R,8R,9R,10R)-3-((4-(6-aminopyridin-2-yl)-1H-1,2,3-triazol-1-yl)methyl)-9-(((2S,3R,4S,6R)-4-(dimethylamino)-3-hydroxy-6-methyltetrahydro-2H-pyran-2-yl)oxy)-8-methoxy-6,8,10,12-tetramethyl-1-oxa-4-azacyclotridecane-11,13-dione]	> 32	> 32	> 32	> 32	
CO[C@]1(C)C[C@@H](C)CN[C@H](CNCCCCCCn2ccnn2)COC(=O)[C@H](C)C(=O)[C@H](C)[C@H]1O[C@@H]1O[C@H](C)C[C@H](N(C)C)[C@H]1O [Compound 220]	> 32	> 32	> 32	> 32	
CO[C@]1(C)C[C@@H](C)CN[C@H](CN)COC(=O)[C@H](C)C(=O)[C@H](C)[C@H]1O[C@@H]1OC(C)CC(N(C)C)C1O (stereo partly drawn) [Compound 221]	> 32				> 32
